In general, ED50 refers to the dose at which the effect has come halfway, by size or by number of responders.

Where a name gives a salt, the structure may show the parent alone.

For data set [1], the system named is phrenic nerve-hemidiaphragm preparation. The data set is described as follows: In vitro muscle relaxing effect on the isolated phrenic nerve-hemidiaphragm preparation of rats. The arrangement: species or system rat. To be noted: for IC90: read-out: ED90 rat.
For data set [2] the test system is unchanged. The data set is described as follows: In vitro muscle relaxing effect on the isolated phrenic nerve-hemidiaphragm preparation of guinea-pigs. The arrangement: species or system guinea-pig. As to conditions: for IC90: read-out: ED90 guinea-pig.
A further data set has as its system neuromuscular block. The data set is described as follows: Comparison of the effects of 2 × ED90 doses in beagle dog. It counts as in vivo. The arrangement: Tetanic fade: unit not given here. As to conditions: mean ± SEM; for Recovery 0-75% / Recovery index / Time to max. recovery: P <0.02; for T4/T1 at max. recovery: P <0.05; for Clinical duration / Onset time / Time to 80% block / ED90 / ED95: n = 8; for Clinical duration / Onset time: P <0.001; for Time to 80% block: P <0.01; for ED90 / ED95: Canis lupus familiaris, beagle dog. The text has this: Comparison of the effects of 2 × ED90 doses in beagle dog (no.
animals in parentheses). Mean ± SEM.

The subject of the next data set is vagus nerve. The data set is described as follows: Antivagal effect on anesthetized cat.
The test system of data set [3] is phrenic nerve-hemidiaphragm preparation. The data set is described as follows: Reversal of the in vitro neuromuscular block (wash-out, neostigmine, edrophonium). The arrangement: species or system rats and guinea-pigs.
Data set [4] deals with anterior tibial muscle (musculus tibialis anterior). The data set is described as follows: In vivo effect on the anterior tibial muscle of the guinea-pig. As to conditions: for time for the 75% neuromuscular block to decrease to 25%: 2×ED90 doses; for ED50 / ED90: Cavia porcellus, iv; for Clinical duration / Onset time: 2 × ED90 dose; for Clinical duration / Recovery 25%-75% / Onset time: guinea-pig, mean ± SEM (n = 4); for Onset time: time required to 95% block.

Another data set has as its system vagus. As to conditions: 4×ED90 dose; cited from earlier work.
The conditions of data set [5]: background; cited from earlier work.
Setting [6] is: rat, 0.1 Hz, 0.2 ms, supramaximal stimulus, mean ± SEM (n = 4).

As to “7',12dihydroxy-6,6dimethoxy-2,2',2trimethyltubocuraranium chloride hydrochloride [Tubocurarine chloride]”, the IC90 in data set [1] (setting [6]) was 1020 ± 10 nM; in data set [2] (guinea-pig, 0.1 Hz, 0.2 ms, supramaximal stimulus, mean ± SEM (n = 4)), 1330 ± 90 nM.
For `C=CC[N+]1([C@H]2C[C@H]3[C@@H]4CC[C@H]5C[C@H](OC(C)=O)[C@@H](N6CCC7(CC6)OCCO7)C[C@]5(C)[C@H]4CC[C@]3(C)[C@H]2OC(C)=O)CCCC1.[Br-]` [Example 8, 1-[3α,17β-bis(acetyloxy)-2β-(1,4-dioxa-8-azaspiro[4.5]dec-8-yl)-5α-androstan-16β-yl]-1-(2-propenyl)pyrrolidinium bromide], in the data set with neuromuscular block (2 × ED90, beagle dog, n = 4), the “Recovery 0-75%” value was 16.2 ± 0.9 min, the Recovery index is reported as 3.4 ± 0.4 min, the “Time to max. recovery” value was found to be 24.4 ± 2.0 min and the “T4/T1 at max. recovery” value is given as 91.3 ± 4.8. In the data set with neuromuscular block (2 × ED90, beagle dog, n = 4, P n.s. (not significant)), this molecule came in with a Tetanic fade of 97.5 ± 1.9. In the data set on neuromuscular block (2 × ED90, beagle dog), the Clinical duration stood at 12.6 ± 0.6 min, the Onset time is 75.3 ± 5.9 s and the “Time to 80% block” value was 48.4 ± 2.9 s. In the data set on neuromuscular block, this molecule showed an ED90 of 0.0105 ± 0.0002 mg/kg and an ED95 of 0.0111 ± 0.0002 mg/kg. The IC90 in data set [1] (Rattus norvegicus) was found to be 8370 ± 260 nM. Also, the “neuromuscular blocking (inhibitory) effect compared with known muscle relaxants” value in data set [1] (rat, in vitro) was “of the similar order of magnitude as that of other known, clinically employed muscle relaxants”. In addition, in the data set with vagus nerve (8×ED90 dose), the “block of the vagus” value is listed as “did not block the vagus” and the “inhibition of the effects of electrical stimulation of the vagus on heart rate or blood pressure” value is on record as “did not inhibit the effects of electrical stimulation of this nerve on heart rate or blood pressure”. Moreover, in the data set with vagus nerve (in vivo cat experiments), the “change in heart rate or blood pressure on electrical stimulation of the vagus” value is recorded as “no significant change in heart rate or blood pressure” and the “effect on the vagus” value is “no stimulating effect on the vagus”. Moreover, the “Decrease in heart rate” value with vagus nerve (vagal stimulation, anesthetized cat, mean ± SEM (n = 4), control 14 ± 1.8) was found to be 15 ± 2.9%. Further, in the data set on vagus nerve (vagal stimulation, anesthetized cat, mean ± SEM (n = 4), control 40.0 ± 8.1), the “Decrease in blood pressure” value turned out to be 32.0 ± 6.6 Hgmm. For the same molecule, in data set [3] (in vitro), the onset of action entry is listed as “rapid” and the reversibility by wash-out result is “easily reversible by wash-out”. Further, in data set [3] (with neostigmine methyl sulfate or edrophonium chloride), the “antagonism of the effect” value was “could also be antagonized with neostigmine methyl sulfate”. For the same molecule, the “time for the 75% neuromuscular block to decrease to 25%” value (“time … to decrease to 25%” for short) in data set [4] (guinea-pigs) is listed as 10.1 min. Also, in data set [4], the median effective dose (ED50) amounted to 0.034 ± 0.002 mg/kg, the ED90 turned out to be 0.048 ± 0.0027 mg/kg, the Clinical duration is on record as 10.1 ± 1.32 min and the “Recovery 25%-75%” value was 2.4 ± 0.3 min. In data set [4], this molecule came in with an Onset time of 0.9 ± 0.18 min. In data set [4] (guinea-pigs, in vivo), the “duration of action compared with reference substances” value is “shorter than those of other reference substances with similar chemical structure” and the “onset of action compared with reference substances” value was “more rapid”. The IC90 in data set [2] (Cavia porcellus) came out at 900 ± 30 nM. For the same molecule, the “neuromuscular blocking (inhibitory) effect compared with known muscle relaxants” value in data set [2] (guinea-pig, in vitro) is on record as “of the similar order of magnitude as that of other known, clinically employed muscle relaxants”.
On to `CC(=O)O[C@H]1C[C@@H]2CC[C@@H]3[C@H](CC[C@@]4(C)[C@H]3C[C@H]([N+]3(C)CCCCC3)[C@@H]4OC(C)=O)[C@@]2(C)C[C@@H]1[N+]1(C)CCCCC1` [Pancuronium bromide, 1'-[3α,17β-bis(acetyloxy)-5α-androstane-2β,16β-diyl]bis[1-methylpiperidinium]dibromide], for which, in data set [1] (Rattus norvegicus), the IC90 worked out at 6360 ± 30 nM. Besides, in the data set on vagus, the “inhibition of the decrease of blood pressure caused by vagal stimulation” value was 50% and the “inhibition of the decrease of heart rate caused by vagal stimulation” value was 50%. In data set [4] (guinea-pigs), the “time … to decrease to 25%” value was 45.6 min. Also, in data set [4], the 50% effect level (ED50) was put at a dose of 0.01 ± 0.0011 mg/kg, the ED90 worked out at 0.015 ± 0.0019 mg/kg, the Clinical duration was determined as 45.6 ± 5.68 min and the “Recovery 25%-75%” value is 14.8 ± 2.45 min. For the same molecule, in data set [4], the Onset time was determined as 1.1 ± 0.31 min. Further, in data set [2] (Cavia porcellus), the IC90 worked out at 290 ± 10 nM.
For the molecule `CC(=O)O[C@H]1C[C@@H]2CC[C@@H]3[C@H](CC[C@@]4(C)[C@H]3C[C@H](N3CC[N+](C)(C)CC3)[C@@H]4OC(C)=O)[C@@]2(C)C[C@@H]1N1CC[N+](C)(C)CC1.[Br-].[Br-]` [Pipecuronium bromide, 4,4'-[3α,17β-bis(acetyloxy)-5α-androstane-2β,16β-diyl]bis[1,1-dimethylpiperazinium]dibromide], the IC90 in data set [1] (setting [6]) amounted to 1500 ± 40 nM. The “cardiovascular side effects / stability” value in data set [5] is listed as “exceed those of pancuronium bromide or vecuronium bromide”. Also, the “time … to decrease to 25%” value in data set [4] (guinea-pigs) is listed as 60.6 min. Besides, in data set [4], the 50% effective dose (ED50) is 0.004 ± 0.0007 mg/kg, the ED90 came out at 0.006 ± 0.0007 mg/kg, the Clinical duration turned out to be 60.6 ± 9.28 min and the “Recovery 25%-75%” value is on record as 24.6 ± 3.71 min. In data set [4], this molecule showed an Onset time of 1.5 ± 0.08 min. For the same molecule, in data set [2] (Cavia porcellus, guinea-pig, 0.1 Hz, 0.2 ms, supramaximal stimulus, mean ± SEM (n = 4)), the IC90 was found to be 80 ± 3 nM.
With `CC(=O)O[C@H]1C[C@@H]2CC[C@@H]3[C@H](CC[C@@]4(C)[C@H]3C[C@H]([N+]3(C)CCCCC3)[C@@H]4OC(C)=O)[C@@]2(C)C[C@@H]1N1CCCCC1` [Vecuronium bromide, 1-[3α,17β-bis(acetyloxy)-2β-(1-piperidinyl)androstan-16β-yl]1-methylpiperidinium bromide hydrochloride], in the data set on neuromuscular block (2 × ED90, beagle dog, n = 4), the “Recovery 0-75%” value is recorded as 24.9 ± 3.0 min, the Recovery index amounted to 6.6 ± 1.1 min, the “Time to max. recovery” value is listed as 31.4 ± 4.3 min and the “T4/T1 at max. recovery” value came out at 71.0 ± 2.9. Further, in the data set on neuromuscular block (2 × ED90, beagle dog), the Clinical duration was 17.8 ± 1.1 min, the Onset time was found to be 115.1 ± 8.6 s and the “Time to 80% block” value was 62.8 ± 4.5 s. Moreover, in the data set on neuromuscular block, the ED90 amounted to 0.0358 ± 0.0009 mg/kg and the ED95 came out at 0.0379 ± 0.001 mg/kg. Also, the IC90 in data set [1] (Rattus norvegicus) turned out to be 8720 ± 380 nM. Also, the “cardiovascular side effects / stability” value in data set [5] is reported as “lack of cardiovascular side effects”. Moreover, in data set [4], it took a dose of 0.007 ± 0.0019 mg/kg to reach the 50% effect level (ED50), the ED90 came out at 0.011 ± 0.002 mg/kg, the Clinical duration stood at 26.6 ± 4.61 min and the “Recovery 25%-75%” value is 9.0 ± 2.35 min. The same molecule came in with an Onset time in data set [4] of 1.3 ± 0.51 min. Moreover, the IC90 in data set [2] (Cavia porcellus) was found to be 250 ± 10 nM.

These data come from US5591735A, “Androstane derivatives substituted by a quaternary ammonium group in 16-position, pharmaceutical compositions containing them and process for preparing same” (Marvishi Pharmaceutical Co., Ltd., priority 1992, dated 1997).
